Laboratory results as given in US20050020544A1, “Bicyclic CB2 cannabinoid receptor ligands” (priority 2002, published 2005).

What was measured:
Male ICR mice [1] = assay: Visceral pain induced by i.p. acetic acid; format: in vivo, mouse
Method: Male ICR mice (25 g average body weight, Harlan, Israel) were pretreated by i.v. injection at volume dose of 5 ml/kg of vehicle, control and test compounds at various doses. Each treatment group was composed of at least 4 animals. Fifteen minutes later, the mice were injected i.p. with 10 ml/kg of 0.6% acetic acid and the number of withers is counted over a period of 5 minutes, starting 5 minutes after the acetic acid administration. The results are expressed as mean number of withers±SD.

male Sprague-Dawley rats = assay: Chronic constriction nerve injury, neuropathic pain (Von Frey filaments); format: in vivo, rat
Description: The aim of this study was to assess the potential analgesic effects of the novel bicyclic CB2 binding compounds in an animal model of neuropathic pain. A peripheral monopathy was induced in the right hind limb of rats following a chronic constriction of the sciatic nerve (Bennet, G. J. & Xie, Y-K., Pain 33: 87-107, 1988). The development of mechanical allodyna was monitored using an established behavioral test (Von Frey filaments).
Pre-surgery baseline values were ascertained as the mean of 2 pre-surgery values. Once the baseline values had been established, the animals were surgically prepared by constricting the right sciatic nerve with 4 chromic cat gut loose ligatures.
The design was randomized, performed in a masked fashion as to whether drug or vehicle is being given. The animals, male Sprague-Dawley rats (average body weight 240-290 g), were allowed to acclimatize to the behavioral testing equipment prior to testing. On the testing day, the animals, at least six per treatment group, were given i.p. a single dose of one of the test compounds in a volume of 2.5 ml/kg. Fifteen minutes later, a series of Von Frey filaments (pre-calibrated prior to testing) were applied to the plantar surface of the hind paw, from below. The filaments were applied in ascending order starting with the weakest force and the withdrawal threshold for both the ipsilateral and contralateral hind paws was evaluated. Each filament was indented on the mid-plantar surface of the foot to the point where it just starts to bend; this is repeated approximately 8-10 times per filament at a frequency of approximately 1 Hz. The withdrawal threshold is defined as being the lowest force of two or more consecutive Von Frey's filaments to elicit a reflex withdrawal response (i.e. a brief paw flick) and is measured in grams.
The results are expressed as % increase in the threshold of response to Von Frey's filaments in the test compound treated group versus the vehicle treated animals and per definition the vehicle treated group yields a null baseline value. The black column represents the morphine treated animals (4 mg/kg), the gray and the dotted column bars represent two doses of compound A (0.5 and 1 mg/kg respectively).

ICR male mice = assay: Tail flick model for acute peripheral pain, i.p.; format: in vivo, mouse
Summary of the method: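 Male ICR mice (≥6/group) dosed i.p. at 0.1–10 mg/kg in Cremophor EL:ethanol diluted 1:20 in saline; morphine HCl 5 mg/kg as positive control. Tail illuminated 2 cm from tip at set times post-dose; latency (s) recorded in duplicate. Read-outs: latency and % animals showing analgesia, mean±SE; ANOVA/Tukey or Fisher's exact test, p<0.05.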

Male ICR mice [2] = assay: Psychomimetic effects: open field locomotor activity and rectal temperature; format: in vivo, mouse; conditions: for hypothermia (rectal body temperature): i.v., end of open-field examination
Method: Male ICR mice (25 g average body weight, Harlan, Israel) are used for a series of tests for psychotropic effects, specifically locomotor activity and rectal temperature. […] Naïve mice were used as control. Each treatment group is composed of at least 6 animals.
Animals were placed in an open field (60×50 cm) 5 minutes after i.v. administration of the treatment or 30 minutes after i.p. injection. Their locomotor activity was recorded using a video based computer system (ViewPoint, France). The following parameters were recorded for 3 minutes: the total distance, the time and the speed traveled by the animals. An additional parameter, rectal body temperature, was monitored at the end of the open-field examination using a thermostat thermometer (Cole Parker Model 8402-00) and a thermostat probe (YSI 400 Model 402).
Results are expressed as mean±SE and the differences between vehicle and treatments are compared by ANOVA, followed by post-hoc Tukey's test.

Male Sprague Dawley rats = assay: Effect on the cardiovascular system (MABP, heart rate); format: in vivo, rat
Method: The purpose of this study was to assess the safety of the test compounds in male Sprague Dawley rats (270-350 g, Harlan, Israel). The test compounds were dissolved in vehicle, diluted 1:20 in sterile saline and injected either i.v. or i.p. at doses ranging from 0.1 to 2 mg/kg for i.v. administration or 10 to 40 mg/kg for i.p. administration, in volumes of 0.5 ml/100 g body weight. Each treatment group was composed of at least 6 animals. A cannula (PE 50, Clay Adams, USA) was implanted into the femoral artery under halothane anesthesia (induction 4% and maintenance 1%)). The vein was cannulated for drug administration. The arterial cannula was attached to a pressure transducer (Ohmeda DT-XX USA). The transducer was connected to a data acquisition system (Biopac, USA). Recordings of the heart rate (HR), mean arterial blood pressure (MABP) and electrocardiogram (ECG lead 2) were taken for 20 minutes before treatment, for the establishment of a stable baseline, up to 60 minutes following injections of the test compounds. Animals were also connected to a temperature recorder through a rectal thermistor probe (YSI Model 400, USA) and rectal temperature was monitored along the duration of the study.
Differences between vehicle and treatments are compared by one-way ANOVA, followed by post-hoc Newman-Keuls tests (Prism software from Graphpad, San Diego).

[3] = 10 mg/kg i.p., 330 minutes (five and a half hours)
[4] = 20 mg/kg i.p., one hour follow-up

## CCCCCCC(C)(C)c1cc(O)c(C2CC(=O)C3CC2C3(C)C)c(O)c1 (single isomer, unassigned; (-)) [Compound A, (−)-4-[4-(1,1-Dimethyl-heptyl)2,6-dihydroxy-phenyl]-6,6-dimethyl-bicyclo[3.1.1)heptan-2-one]
Male ICR mice [1]; 0.5 mg/kg i.v.
  inhibition of number of withers as compared to vehicle: 64%
Male ICR mice [1]; 0.5 mg/kg i.v., mean±SD
  number of withers: 7.9±4.8
Male ICR mice [1]; 1 mg/kg i.v.
  inhibition of number of withers as compared to vehicle: 95%
Male ICR mice [1]; 1 mg/kg i.v., mean±SD
  number of withers: 1.2±0.6
Male ICR mice [1]; 2 mg/kg i.v.
  inhibition of number of withers as compared to vehicle: 100%
  number of withers: no withers at all
Male Sprague-Dawley rats; 0.5 mg/kg i.p., 15 minutes
  increase in pain threshold (Von Frey) versus vehicle: 71%
Male Sprague-Dawley rats; 1 mg/kg i.p., 15 minutes
  increase in pain threshold (Von Frey) versus vehicle: 64%
ICR male mice; 4 mg/kg i.p., thirty minutes
  latency time: 4.9 s
ICR male mice; 10 mg/kg i.p., 90 minutes
  % animals showing analgesia: more than 80%
  latency time: 7.3 s
ICR male mice; [3]
  % animals showing increased analgesia: 80%
  latency time: 4.9 s
ICR male mice; 10 mg/kg i.p., initiation of the study
  % animals showing increased analgesia: 100%
ICR male mice; 8 and 10 mg/kg i.p., 330 minutes
  analgesia: Significant analgesia was still evident
ICR male mice; maximal tested dose 10 mg/kg i.p., 30 minutes
  maximal latency: 7.1 s
Male ICR mice [2]
  hypothermia (rectal body temperature): about 2 °C
Male Sprague Dawley rats; 0.1 mg/kg i.v.
  effect on heart rate: minor insignificant and transient decline in HR
Male Sprague Dawley rats; 0.1 mg/kg i.v., 5 minutes post injection
  decrease in MABP: 4 mmHg
Male Sprague Dawley rats; 0.5 mg/kg i.v.
  time for MABP back to baseline range: 30 min
Male Sprague Dawley rats; 0.5 mg/kg i.v., 5 minutes
  decrease in MABP: about 25 mmHg
Male Sprague Dawley rats; 1 mg/kg i.v.
  time for MABP back to baseline range: 45 min
Male Sprague Dawley rats; 1 mg/kg i.v., 5 minutes
  decrease in MABP: about 30 mmHg
Male Sprague Dawley rats; [4]
  drop in HR: about 17 beats per minute
  drop in HR from baseline: 5%
Male Sprague Dawley rats; higher doses i.v.
  maximal drop in HR: about 80 beats per minute
Male Sprague Dawley rats; i.p., up to 30 mg/kg
  hypotension (decrease in MABP): ≤ 15 mmHg

## CCCCCCC(C)(C)c1cc(O)c([C@H]2CC(=O)[C@H]3C[C@@H]2C3(C)C)c(OC(=O)CCC(=O)O)c1 [Compound R, (−)-4-{4-[1,1-Dimethyl-heptyl]-2-succinate-6-hydroxy-phenyl}-6,6-dimethyl-bicyclo[3.1.1]heptan-2-one]
ICR male mice; 10 mg/kg i.p., 90 minutes
  % animals showing analgesia: 100%
  latency time: 8.5 s
ICR male mice; [3]
  % animals showing increased analgesia: 100%
  latency time: 6.8 s
ICR male mice; 10 mg/kg i.p., all along the duration of the study (5.5 hours)
  % animals with increased resistance to pain: 100%
ICR male mice; 4 and 8 mg/kg i.p.
  analgesia compared with 5 mg/kg morphine: still twice better than 5 mg/kg morphine in generating analgesia
Male ICR mice [2]; 1, 2, 3, 4, 5 and 6 mg/kg i.v., 3 minutes open field
  total distance covered: fluctuations in total distance covered and again this phenomenon had no statistical significance
Male ICR mice [2]
  hypothermia (rectal body temperature): about 2 °C
Male Sprague Dawley rats; 40 mg/kg i.p.
  amplitude of HR fluctuations: 10%
  average drop in HR: about 4 beats per minute
Male Sprague Dawley rats; i.p., 40 mg/kg
  reduction in MABP: ≤ 36 mmHg

## CCCCCCC(C)(C)c1cc(OC)c(C2C=C(CO)C3CC2C3(C)C)c(OC)c1 (single isomer, unassigned; (+)) [HU-308, (+) {4-[4-(1,1-dimethylheptyl)-2,6-dimethoxy-phenyl]-6,6-dimethyl-bicyclo[3.1.1]hept-2-en-2-yl}-methanol, reference compound]
Male Sprague-Dawley rats; 5 mg/kg, separate experiment
  increase in pain threshold (Von Frey) versus vehicle: 117%
